From patent US20110160121A1, “UNACYLATED GHRELIN AND ANALOGS AS THERAPEUTIC AGENTS FOR VASCULAR REMODELING IN DIABETIC PATIENTS AND TREATMENT OF CARDIOVASCULAR DISEASE” (ALIZE PHARMA SAS, priority 2008, published 2011)
Where no end group is shown, it is not given here.

Assays:
CAC membranes = experiment: Competition binding with [125I-Tyr4]-UAG on CAC membranes; design: species or system human; conditions: 100 nM competitor, 0.25 nM radioligand; FIG. 5A
Source text: The specific binding of [^125I-Tyr^4]-UAG (calculated as difference between binding in the absence, control, and in the presence of UAG) represented about 75% of the control value (P<0.001) and was detected either on fresh (0.25 and 0.26 fmol) or frozen-thawed (0.20 and 0.33 fmol) CAC membranes from two different cell preparations.

CAC = experiment: Senescence of CAC recovered from type 2 diabetic patients treated with UAG; design: species or system human; conditions: UAG administered in vivo, CAC recovered after 12 hours, FIG. 2D
Description: (§1) After 12 hours of treatment, CAC were recovered from UAG treated and untreated patients and cultured.
(§2) All the subjects underwent the following testing session: • UAG (3.0 μg/kg/h iv. as infusion for 12 h from 0 to 12 hours); • isotonic saline (infusion from 0 to 12 hours).
CAC Senescence—Senescence was evaluated by acidic β-gal activity on CAC recovered from normal subjects cultured in EGM2 medium for 4 days with UAG or AGE+UAG and saline- or UAG-treated diabetic patients (Ref. 22). Briefly, CAC were washed in phosphate-buffered saline, fixed for 3 min at room temperature in 2% paraformaldehyde, washed, and incubated for 24 h at 37° C. with fresh SA-β-gal stain solution: 1 mg/ml 5-bromo-4-chloro-3-indolyl β-D-galactopyranoside (X-gal), 5 mM/liter potassium ferrocyanide, 5 mM/liter ferricyanide, 150 mM/liter NaCl, 2 mM/liter MgCl2, 0.01% sodium deoxycholate, and 0.02% Nonidet P-40. SA-β-gal-positive cells were counted manually by 3 independent investigators.

p53, p21, pRb [1] = experiment: Western blot of p53, p21, phospho-Rb in CAC recovered from UAG-treated diabetic patients; design: species or system human; conditions: type 2 diabetic patients, UAG administered in vivo, CAC recovered after 12 hours; FIG. 2E
Description: as §1, §2
(§3) Western Blot Analysis—CAC from healthy donors cultured in the presence of UAG, in combination or not with AGE, and CAC recovered from diabetic patients treated with saline or UAG were lysed. Protein concentration was detected as previously described (Ref. 24). 50 μg of proteins were separated on SDS-polyacrylamide gels and transferred to nitrocellulose membranes. Reaction with anti-p53, anti p21 and anti-phospho-Rb antibodies and detection with an enhanced chemiluminescence detection system (Amersham Biosciences) were performed as described previously (Ref. 20).

p53, p21, pRb [2] = experiment: Western blot of p53, p21 and phospho-Rb in cultured CAC; assay type: cell-based, human; conditions: induced by AGE in cultured CAC; FIG. 2B
Source text: To this end, the effect of AGE treatment, alone or in combination with UAG, was first evaluated on SA-β-gal activity. […] In addition, AGE-induced p53 accumulation and senescent like-growth arrest were prevented by silencing p53 (FIG. 2C).
as §3

GHSR-1a = GHSR-1a (Homo sapiens, UniProt Q92847); conditions: Ref. 7; cited from earlier work
GHSR-1a, sequence (Q92847 whole entry): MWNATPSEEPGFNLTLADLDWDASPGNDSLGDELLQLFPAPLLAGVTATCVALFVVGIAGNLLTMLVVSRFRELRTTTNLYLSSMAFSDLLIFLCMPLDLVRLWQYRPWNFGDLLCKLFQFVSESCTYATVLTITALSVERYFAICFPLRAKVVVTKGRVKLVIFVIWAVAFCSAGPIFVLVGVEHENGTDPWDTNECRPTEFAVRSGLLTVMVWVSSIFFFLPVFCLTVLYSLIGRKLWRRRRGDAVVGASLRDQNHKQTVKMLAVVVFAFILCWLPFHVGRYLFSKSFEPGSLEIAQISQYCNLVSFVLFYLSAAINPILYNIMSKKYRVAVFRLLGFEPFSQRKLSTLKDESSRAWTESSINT

inhibition of binding of [125I-Tyr4]-UAG to CAC membranes (CAC membranes): inhibited
Substance: 1-NH2Gly-Ser-Ser-Phe-Leu-Ser-Pro-Glu-His-Gln-Arg-Val-Gln-Gln-Arg-Lys-Glu-Ser-Lys-Lys-Pro-Pro-Ala-Lys-Leu-Gln-Pro-Arg-28 (H-GSSFLSPEHQRVQQRKESKKPPAKLQPR; ends and bridges not checked; listed as Homo sapiens) [UAG]
number of senescent cells (CAC): reduced the number of senescent cells
p53 accumulation, phosphorylation of Rb and p21 expression (p53, p21, pRb [1]): prevented p53 accumulation, phosphorylation of Rb and p21 expression
p53 accumulation, p21 expression and phosphorylation of Rb (p53, p21, pRb [2]): prevented p53 accumulation, p21 expression and phosphorylation of Rb induced by AGE
binding to GHSR-1a (GHSR-1a): fails to bind GHSR-1a
